Patent publication US20260109732A1, “LIPID AMINES” (ModernaTX, Inc., priority 2021, published 2026)
Where a name gives a salt, the structure may show the parent alone.

How the values were obtained:
HeLa cells [1] = assay: CFTR Protein Expression Assay in HeLa Cells; format: cell-based, Human; details: LNPs encapsulating CFTR mRNA, N=4 wells; 5 h serum-free then 24 h; immunofluorescence vs PBS control
Outline: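 Readout is fold-change in per-cell CFTR immunofluorescence intensity (488 nm, confocal imaging) relative to PBS-treated cells, from 4 replicate wells. LNPs encapsulating CFTR mRNA were applied serum-free for 5 h, followed by 24 h in complete medium before PFA fixation.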

[2] = Encapsulation of mRNA nanoparticles with lipid amines using Ribogreen assay; format: physicochemical
Outline: (§1)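 DLS gave size and PDI, and Ribogreen gave encapsulation, for luciferase- or CFTR-mRNA nanoparticles (N:P 4.93). Particles came from IL1/DSPC/cholesterol/PEG-DMG-2K mixed at pH 4, mRNA-loaded, neutralized with TRIS pH 8.12, and then treated with lipid amine SA50 in pH 7.5 buffer.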

[3] = Diameter and PDI from DLS measurements of mRNA nanoparticles with lipid amines; format: physicochemical
Outline: as §1

HeLa cells [4] = assay: Luciferase Protein Expression Assay in HeLa Cells; format: cell-based, Human; details: LNPs encapsulating Luciferase mRNA, 25 ng per well, N=4 wells; 5 h serum-free then 24 h; ONE-Glo
Outline: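 Luminescence output, average RLU across N=4 wells, was measured with ONE-Glo after cell lysis. Before that, HeLa cells were exposed to 25 ng/well luciferase-mRNA nanoparticles (PBS control) for 5 h serum-free, then cultured overnight (24 h) in complete MEM.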

[5] = CFTR mRNA nanoparticle with lipid amine
[6] = Luciferase mRNA nanoparticle modified with lipid amine

Structure (SMILES) | Average fold-change in CFTR signal intensity per cell compared to buffer control ± standard deviation (HeLa cells [1]) [fold-change] | % Encapsulation (Ribogreen) [2, 5] [%] | % Encapsulation (Ribogreen) [2, 6] [%] | Diameter (nm) [3, 5] [nm] | PDI [3, 5] | Diameter (nm) [3, 6] [nm] | PDI [3, 6] | Average Relative Light Units ± Standard Deviation (HeLa cells [4]) [Relative Light Units]
CC(C)CCC[C@@H](C)[C@H]1CC[C@H]2[C@@H]3CC=C4C[C@@H](OC(=O)N(CCCCNCC5(CN)CC5)CC5(CN)CC5)CC[C@]4(C)[C@H]3CC[C@]12C.Cl.Cl.Cl [SA128, (3S,8S,9S,10R,13R,14S,17R)-10,13-dimethyl-17-((R)-6-methylheptan-2-yl)-2,3,4,7,8,9,10,11,12,13,14,15,16,17-tetradecahydro-1H-cyclopenta[a]phenanthren-3-yl ((1-(aminomethyl)cyclopropyl)methyl)(4-(((1-(aminomethyl)cyclopropyl)methyl)amino)butyl)carbamate trihydrochloride] | 19.9 ± 0.4 | 99.4 | 99.4 | 74.5 | 0.13 | 75 | 0.16 | 39386.4 ± 5261.4
CC(C)CCC[C@@H](C)[C@H]1CC[C@H]2[C@@H]3CC=C4C[C@@H](OC(=O)CCC(=O)N(CCCC(C)(C)N)CCC(C)(C)N)CC[C@]4(C)[C@H]3CC[C@]12C [SA166, (3S,8S,9S,10R,13R,14S,17R)-10,13-dimethyl-17-((R)-6-methylheptan-2-yl)-2,3,4,7,8,9,10,11,12,13,14,15,16,17-tetradecahydro-1H-cyclopenta[a]phenanthren-3-yl 4-((3-amino-3-methylbutyl)(4-amino-4-methylpentyl)amino)-4-oxobutanoate dihydrochloride] | 15.6 ± 1.3 | 99.5 | 99.2 | 76.1 | 0.16 | 75 | 0.14 | 33377.3 ± 8879.8
CC[C@H](CC[C@@H](C)[C@H]1CC[C@H]2[C@@H]3CC=C4C[C@@H](SSCCC(=O)N(CCCCNCCC(N)(CC)CC)CCC(N)(CC)CC)CC[C@]4(C)[C@H]3CC[C@]12C)C(C)C [SA181, N-(3-amino-3-ethylpentyl)-N-(4-((3-amino-3-ethylpentyl)amino)butyl)-3-(((3S,8S,9S,10R,13R,14S,17R)-17-((2R,5R)-5-ethyl-6-methylheptan-2-yl)-10,13-dimethyl-2,3,4,7,8,9,10,11,12,13,14,15,16,17-tetradecahydro-1H-cyclopenta[a]phenanthren-3-yl)disulfaneyl)propanamide trihydrochloride] | 6.3 ± 0.4 | 98.7 | 99.5 | 69 | 0.13 | 74 | 0.16 | 12107.3 ± 1481.4
CC[C@H](CC[C@@H](C)[C@H]1CC[C@H]2[C@@H]3CC=C4C[C@@H](OC(=O)CCC(=O)N(CCCCCCCC(C)(C)N)CCC(C)(C)N)CC[C@]4(C)[C@H]3CC[C@]12C)C(C)C [SA165, (3S,8S,9S,10R,13R,14S,17R)-17-((2R,5R)-5-ethyl-6-methylheptan-2-yl)-10,13-dimethyl-2,3,4,7,8,9,10,11,12,13,14,15,16,17-tetradecahydro-1H-cyclopenta[a]phenanthren-3-yl 4-((3-amino-3-methylbutyl)(8-amino-8-methylnonyl)amino)-4-oxobutanoate dihydrochloride] | 14.0 ± 0.5 | 98.8 | 98.8 | 69.8 | 0.12 | 72 | 0.13 | 33585.6 ± 7766.5
